Measured values: patent EP0330992A2, “Novel cyclobutane Derivatives, processes for their preparation and pharmaceutical compositions comprising them” (Nippon Kayaku Kabushiki Kaisha, priority 1988, dated 1989)
Values after ≈ are worked out from the molar mass of the structure shown.

Assays:
Assay type in all cases: cell-based
[1] = tested on: herpes simplex virus type 1 (HSV-I); assay: Plaque formation inhibition in Vero cells (Test Example 1, Method 1); details: Human alphaherpesvirus 1, 48 hours, read-out: IC₅₀ HSV-1
Method: (§1) Antiviral activity against herpes simplex virus type 1 (HSV-I) and herpes simplex virus type 2 (HSV-II) which were DNA viruses was examined by the following methods.
(§2) A 6 well multiplate bearing a single layr of Vero cells (derived from African green monkey kidney cell) was infected with 100-150 PFU (plaque forming unit) of virus. After (infection) at 37°C for an hour, agar medium (Eagle's MEM medium supplemented with 1.5% agar) containing a sample of each concentration was put on the single layer followed by culturing at 37°C for 48 hours in a 5% (v/v) carbon dioxide incubator. Thereafter, formation of plaque was measured to determine 50% inhibitory concentration (IC₅₀).

[2] = tested on: human cytomegalovirus (HCMV); assay: Anticytomegaloviral plaque formation inhibition in human fetal fibroblast (Test Example 2, Method 2); details: Human betaherpesvirus 5, 240 h, AO169 strain, 10 days, read-out: IC₅₀ HCMV
Method: An activity against human cytomegalovirus (HCMV) which was DNA virus was examined by the following method.
Anticytomegaloviral activity was determined in terms of 50% inhibitory concentration (IC₅₀) by infecting 35 mm dish having a single layer of human fetal fibroblast with 100 PFU (plaque forming unit) of cytomegalovirus (AO169 strain), adsorbing for an hour, laying thereon a medium containing the compound of each concentration supplemented with 0.5% agarose and 2% fetal calf serum, culturing at 37°C for 10 days in a 5% (v/v) carbon dioxide gas incubator and measuring formation of plaque.

[3] = tested on: human uterine cervical cancer HeLa S₃; assay: Growth inhibition of HeLa S3 cells, Methylene Blue staining (Test Example 5, Method 5); details: 50% growth inhibitory concentration, 72 hours, read-out: IC₅₀ HeLaS₃
Method: Anticancer activity against human uterine cervical cancer HeLa S₃, mouse leukemia L1210 and P388 cells was examined by the following method. HeLa S₃ cells were prepared in a concentration of 7.5 x 10³ cells/ml and inoculated on a 96 well flat bottom plate by 0.2 ml/well each. After culturing at 37°C for 24 hours in a 5% CO₂ incubator, 10 µl of the compound was added thereto followed by culturing for 72 hours. After culturing, the culture medium of each well was withdrawn and fixed with methanol. Then, 0.1 ml/well each of 0.05% Methylene Blue/10 mM-Tris-HCl (pH 8.5) solution was added to stain at room temperature for 30 minutes. After withdrawing the dyeing solution from each well using an aspirator, the well was washed 3 times with pure water. After adding 3% HCl in a ratio of 0.2 ml/well, the well was sealed and allowed to stand at room temperature for about 24 hours and the dye was then extracted from the cells. Absorbance of each well at 660 nm was measured with Dynatec microplate reader. The growth inhibition rate treated wells to the control wells were calculated according to the equation below and 50% growth inhibitory concentration (IC₅₀, µg/ml) was determined by the Litchfield method. Growth inhibition rate (%) = (1 - A₁/A₀) x 100 wherein A₁ = Absorbance of the treated group A₀ = Absorbance of the control group

[4] = tested on: mouse leukemia P388 cells; assay: Growth inhibition of P388 cells, cell count (Test Example 5, Method 6); details: 50% growth inhibitory concentration, 48 hours, read-out: IC₅₀ P338
Method: (§3) Anticancer activity against human uterine cervical cancer HeLa S₃, mouse leukemia L1210 and P388 cells was examined by the following method. P388 and L1210 cells were inoculated on a 24 well plate and the compound was added thereto followed by incubation at 37°C for 48 hours in 5% CO₂. The number of cells after the incubation was counted with a Caulter counter. The growth inhibition rate of the treated group to the control group was calculated according to the equation below and 50% growth inhibitory concentration (IC₅₀, µg/ml) was determined by the Litchfield method. Growth inhibition rate (%) = [1 - (NT-N₀)/(Nc-N₀)] x 100 wherein NT = cell count of the treated group N₀ = cell count at the onset of incubation Nc = cell count of the control group

[5] = tested on: mouse leukemia L1210 cells; assay: Growth inhibition of L1210 cells, cell count (Test Example 5, Method 6); details: 50% growth inhibitory concentration, 48 hours, read-out: IC₅₀ L1210
Method: as §3

AIDS virus (HIV) = assay: Anti-HIV activity in MT-4 cells, viral antigen by fluorescent antibody method (Test Example 4, Method 4); details: Human immunodeficiency virus 1, MT4, 96 h, read-out: IC₅₀ HIV
Method: Activity against AIDS virus (HIV) which was RNA virus was examined by the following method.
In an anti-HIV (human immunodeficiency virus) active 24 well tray were charged about 50,000/ml of MT-4 cells. Further […] of a solution containing a definite amount of the compound of this invention was added thereto. After culturing at 37°C for 2 hours in a 5% (v/v) carbon dioxide gas incubator, 10³-10⁴ infection units of HIV were added thereto. After culturing for 4 days, a part of the culture solution was smeared on a slide glass and fixed with acetone. Then, occurrence of viral antigen was observed by fluorescent antibody method.
As primary antibody in the fluorescent antibody method, serum from the patient with AIDS was used and FITC-labeled anti-human IgG was used as secondary antibody.

hepatitis B virus (HBV) = assay: Hepatitis B virus DNA in liver cell line HB611, Southern method (Test Example 3, Method 3); details: 360 h, HB611 cells, 15 days, HBV DNA by Southern method, read-out: IC₅₀ HBV
Method: Activity against hepatitis B virus (HBV) which was DNA virus was examined by the following method.
Incubated liver cell line HB611 (Proc. Natl. Acad. Sci. USA, 84 (1987), 444) capable of producing and releasing activated hepatitis B virus was cultured in modified Eagle's medium (GIBCO) at 37°C in 5% CO₂ in the presence 10% fetal calf serum, 200 µg/ml of G418 and 100 U/ml each of penicillin and streptomycin. The culture was inoculated on a 6 well plate in 5 x 10⁴ cells/well (35 mm). When 50% confluent state was achieved 1 or 2 days after, a definite quantity of this compound was added and the mixture was cultured. While exchanging with a medium containing the compound in the same concentration every 3 other days, incubation was continued for 15 days. Thereafter the medium was removed. The cells were treated with 0.5 ml of lysis buffer (10 mM Tris HCl, pH 7.8/5 mM Na₂EDTA, 1% SDS/0.1 mg/ml Pronase K) at 37°C for an hour. The resulting DNA was treated with RNase and purified by treatment with phenol and chloroform and then precipitation with ethanol.
Then, 5 µg of DNA was treated with Hind III and DNA pattern was analyzed by the Southern method using as a probe ³²P-labeled hepatitis B virus DNA.

[6] = tested on: herpes simplex virus type 2 (HSV-II); assay: Plaque formation inhibition in Vero cells (Test Example 1, Method 1); details: Human alphaherpesvirus 2, 48 hours, read-out: IC₅₀ HSV-2
Method: as §1, §2

IC50 [1]	SMILES	IC50 [2]	IC50 [3]	IC50 [4]	IC50 [5]	IC50 (AIDS virus (HIV))	IC50 (hepatitis B virus (HBV))	IC50 [6]
8.5 µg/mL (≈ 31.5 µM)	Nc1nc(Cl)c2ncn([C@@H]3C[C@H](CO)[C@H]3O)c2n1 (racemic) [Compound 4-3, (±)-2-amino-6-chloro-9-[(1β,2α,3β)-2-hydroxy-3-hydroxymethylcyclobutan-1-yl]purine]	3.3 µg/mL (≈ 12.2 µM)	66 µg/mL (≈ 245 µM)	12 µg/mL (≈ 44.5 µM)	8 µg/mL (≈ 29.7 µM)	–	–	–
4 µg/mL (≈ 17 µM)	Nc1ncnc2c1ncn2[C@@H]1C[C@H](CO)[C@H]1O (racemic) [Compound 7, (±)-9-[(1β,2α,3β)-2-hydroxy-3-hydroxymethylcyclobutan-1-yl]adenine]	0.45 µg/mL (≈ 1.91 µM)	6.97 µg/mL (≈ 29.6 µM)	1.64 µg/mL (≈ 6.97 µM)	1.84 µg/mL (≈ 7.82 µM)	–	–	–
–	O=c1[nH]cnc2c1ncn2[C@@H]1C[C@H](CO)[C@H]1O (racemic) [Compound 4-2, (±)-9-[(1β,2α,3β)-2-hydroxy-3-hydroxymethylcyclobutan-1-yl]hypoxanthine]	2.8 µg/mL (≈ 11.9 µM)	–	–	–	–	–	–
–	Nc1ncnc2c1ncn2[C@H]1C[C@@H](CO)C1 [Compound 2-1, 9-[(1β,3β)-3-hydroxymethylcyclobutan-1-yl]adenine]	–	100 µg/mL (≈ 456 µM)	34.1 µg/mL (≈ 156 µM)	63.1 µg/mL (≈ 288 µM)	0.3 µg/mL (≈ 1.37 µM)	2 µg/mL (≈ 9.12 µM)	–
–	[N-]=[N+]=N[C@@H]1[C@@H](CO)C[C@H]1n1cc(F)c(=O)[nH]c1=O (racemic) [Compound 14, (±)-1-[(1β,2α,3β)-2-azido-3-hydroxymethylcyclobutan-1-yl]-5-fluoro-2,4(1H,3H)-pyrimidinedione]	20 µg/mL (≈ 78.4 µM)	–	–	–	–	32 µg/mL (≈ 125 µM)	–
–	Cc1cn([C@@H]2C[C@H](CO)[C@H]2N)c(=O)[nH]c1=O (racemic) [Compound 17, (±)-1-[(1β,2α,3β)-2-amino-3-hydroxymethylcyclobutan-1-yl]-5-methyl-2,4(1H,3H)-pyrimidinedione]	–	–	–	–	–	35 µg/mL (≈ 155 µM)	–
2.2 µg/mL (≈ 8.79 µM)	Nc1nc(N)c2ncn([C@@H]3C[C@H](CO)[C@H]3O)c2n1 (racemic) [Compound 4-4, (±)-2,6-diamino-9-[(1β,2α,3β)-2-hydroxy-3-hydroxymethylcyclobutan-1-yl]purine]	0.69 µg/mL (≈ 2.76 µM)	21 µg/mL (≈ 83.9 µM)	3.4 µg/mL (≈ 13.6 µM)	2.4 µg/mL (≈ 9.59 µM)	3 µg/mL (≈ 12 µM)	–	–

SMILES	IC50 [1]	IC50 [2]	IC50 [3]	IC50 [4]	IC50 [5]	IC50 (AIDS virus (HIV))	IC50 (hepatitis B virus (HBV))	IC50 [6]
Nc1nc2c(ncn2[C@@H]2C[C@H](CO)[C@H]2O)c(=O)[nH]1 (racemic) [Compound 9, (±)-9-[(1β,2α,3β)-2-hydroxy-3-hydroxymethylcyclobutan-1-yl]guanine]	0.3 µg/mL (≈ 1.19 µM)	0.95 µg/mL (≈ 3.78 µM)	10.9 µg/mL (≈ 43.4 µM)	2.57 µg/mL (≈ 10.2 µM)	2.56 µg/mL (≈ 10.2 µM)	–	–	0.31 µg/mL (≈ 1.23 µM)
Nc1nc2c(ncn2[C@H]2C[C@@H](CO)C2)c(=O)[nH]1 [Compound 2-2, 9-[(1β,3β)-3-hydroxymethylcyclobutan-1-yl]guanine]	1.6 µg/mL (≈ 6.8 µM)	2.6 µg/mL (≈ 11.1 µM)	30 µg/mL (≈ 128 µM)	11.5 µg/mL (≈ 48.9 µM)	23.1 µg/mL (≈ 98.2 µM)	10 µg/mL (≈ 42.5 µM)	–	3.6 µg/mL (≈ 15.3 µM)
